According to ChEMBL document CHEMBL4811297, “Low cytotoxic quinoline-4-carboxylic acids derived from vanillin precursors as potential human dihydroorotate dehydrogenase inhibitors” (Bioorg Med Chem Lett, 2021):

Columns and labels:
[1] = tested on: HaCaT; test: Antiproliferative activity against human HaCaT cells assessed as inhibition of cell proliferation; type: cell-based
[2] = Lipophilicity, log D of compound at pH 7.4 in octanol/phosphate buffer measured by shake flask method; type: physicochemical
[3] = target: Dihydroorotate dehydrogenase (quinone), mitochondrial (Homo sapiens, UniProt Q02127); test: Inhibition of human DHODH
Chain of Dihydroorotate dehydrogenase (quinone), mitochondrial (Q02127 whole entry): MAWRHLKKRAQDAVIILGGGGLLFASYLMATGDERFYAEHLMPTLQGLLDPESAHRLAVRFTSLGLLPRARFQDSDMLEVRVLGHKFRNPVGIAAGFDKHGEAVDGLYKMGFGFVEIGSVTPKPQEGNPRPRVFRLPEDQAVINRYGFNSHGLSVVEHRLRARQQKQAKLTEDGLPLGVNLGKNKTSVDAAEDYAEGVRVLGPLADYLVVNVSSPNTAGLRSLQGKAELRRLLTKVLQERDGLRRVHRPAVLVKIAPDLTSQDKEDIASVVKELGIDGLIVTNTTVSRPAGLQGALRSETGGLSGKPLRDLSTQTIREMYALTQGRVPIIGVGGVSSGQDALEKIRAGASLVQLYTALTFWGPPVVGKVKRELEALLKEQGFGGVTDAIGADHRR

Row | logD [2] | IC50 [3] [µM] | Compound | IC50 [1] [µM]
1 | -0.3 | 1 | COc1cc(-c2cc(C(=O)O)c3ccccc3n2)ccc1OCC(=O)NCc1ccco1 | > 300
2 | 1.5 | 1.9 | COc1cc(-c2cc(C(=O)O)c3ccccc3n2)ccc1OCC(=O)Nc1cccc(C)c1 | 225
3 | 1.2 | 3.8 | COc1cc(-c2cc(C(=O)O)c3ccccc3n2)ccc1OCC(=O)Nc1ccc(C)cc1 | > 300
4 | 1 | 2.7 | CCCCCCNC(=O)COc1ccc(-c2cc(C(=O)O)c3ccccc3n2)cc1OC | > 300
5 | 1.5 | 0.5 | COc1cc(-c2cc(C(=O)O)c3ccccc3n2)ccc1OCC(=O)Nc1ccc(Cl)cc1 | > 300
6 | 1.1 | 1.6 | COc1cc(-c2cc(C(=O)O)c3ccccc3n2)ccc1OCC(=O)Nc1ccc(F)cc1 | 286
7 | 2.3 | 0.5 | COc1cc(-c2cc(C(=O)O)c3ccccc3n2)ccc1OCC(=O)Nc1cccc(Cl)c1 | 192
8 | 1.6 | 1.3 | COc1cc(-c2cc(C(=O)O)c3ccccc3n2)ccc1OCC(=O)Nc1ccccc1Cl | 210
9 | 1.3 | 0.5 | COc1cc(-c2cc(C(=O)O)c3ccccc3n2)ccc1OCC(=O)Nc1cccc(C(F)(F)F)c1 | 160
10 | -0.8 | 0.7 | COc1cc(-c2cc(C(=O)O)c3ccccc3n2)ccc1OCC(=O)NCc1cccnc1 | > 300
11 | 0.9 | 0.5 | COc1cc(-c2cc(C(=O)O)c3ccccc3n2)ccc1OCC(=O)Nc1ccccc1F | 161
12 | 1.6 | 2.1 | COc1cc(-c2cc(C(=O)O)c3ccccc3n2)ccc1OCC(=O)Nc1cccc(F)c1 | 148
13 | 0.8 | 1.7 | COc1cc(-c2cc(C(=O)O)c3ccccc3n2)ccc1OCC(=O)NC1CCCCC1 | > 300
14 | 0.7 | 3.9 | COc1cc(-c2cc(C(=O)O)c3ccccc3n2)ccc1OCC(=O)Nc1ccccc1 | > 300
15 | 0 | 3.1 | COc1cc(-c2cc(C(=O)O)c3ccccc3n2)ccc1OCC(=O)NCc1cccs1 | > 300
16 | 1 | 1.7 | COc1cc(-c2cc(C(=O)O)c3ccccc3n2)ccc1OCC(=O)NC12CC3CC(CC(C3)C1)C2 | 180
17 | 1.6 | 2.4 | COc1cc(-c2cc(C(=O)O)c3ccccc3n2)ccc1OCC(=O)Nc1ccc(C(F)(F)F)cc1 | 150
18 | 0.8 | 5.9 | COc1cc(-c2cc(C(=O)O)c3ccccc3n2)ccc1OCC(=O)Nc1ccccc1C | 230
19 | 1.3 | 0.3 | COc1cc(-c2cc(C(=O)O)c3ccccc3n2)ccc1OCC(=O)Nc1ccccc1C(F)(F)F | 102
20 | 0.4 | 3.7 | COc1cc(-c2cc(C(=O)O)c3ccccc3n2)ccc1OCC(=O)NCc1ccccc1 | > 300
